Data published in patent US11028127B2, “Peptides capable of reactivating p53 mutants” (Yeda Research and Development Co. Ltd., priority 2013, dated 2021).

Tests used:
Format in all cases: cell-based
[1] = test system: Mut-p53-expressing human cancer cell lines; experiment: Crystal violet viability assay on further cell lines; conditions: cell line not stated
Procedure: Cells were cultured in 96 wells plates with 2500-4000 cells/well in 0.1 ml and incubated overnight at 37° C. in order to adhere to the plate. Serial dilutions of different peptides (0.5 μg/ml) were added in 0.1 ml aliquots and the plates incubated for additional 48 h at 37° C. Then medium was removed and cell lysis was determined by staining the cells with crystal violet (0.5%) in methanol/water (1:4, v/v), 50 μl each well, for 10 min, followed by 3 washes with PBS. Afterwards, 10% acetic acid (50 μl) was added to each well and shaken for 10 min. Then, automatic plate reading was performed at 595 nm.
An important indication for the reactivating peptides activity is their effect in-vivo on cancer cells that express Mut-p53. In particular, reactivating peptides that can cause specifically Mut-p53-dependent death of cancer cells, with minimal toxic effects on normal cells are desired. A crystal-violet based viability assay, in which crystal-violet is employed to stain cells that adhere to the plate and therefore the amount of dye is proportional to cell number was used to determine the effect of the various test peptides on Mut-p53-dependent death.
Cells were plated in 96-well plates, at calibrated density that allows them to grow for 48 hours without reaching confluence. Peptides are added 6 hours later. […]

[2] = target: T1, R175H p53 (Homo sapiens, UniProt P04637, R175H); experiment: TK-RGC-luc luciferase reporter assay in H1299 p53−/− cells; conditions: peptides added 24 hours after transfection, read at 48 hours
T1 construct: a hot spot full length mutant p53 Mut-p53 R175H (R175H p53); expressed in transfected cells; host or cells: H1299 p53-/- cells, transient transfection
Procedure: (§1) FIG. 12 is a bar graph illustrating the relative luciferase activity (cLuc/gLuc) as measured in the various tested samples. Transient transfection of H1299 p53^−/− cells was performed with plasmids expressing WT p53, R175H p53, R249S p53 or empty vector as control, together with TK-RGC-luc, where luciferase expression is under control of a tandem array of multiple p53-responsive elements. 24 hours after transfection, cells were treated with the test peptides. 48 hours after transfection, a sample of the culture medium was taken for bioluminescence measurements.
(§2) The oligonucleotide (RGC-W) that has the sequence 5′-[…]-3′ (SEQ ID NO:362), and the oligonucleotide mutant RGC oligonucleotide (RGC-M) that has the sequence 5′-[…]-3′ (SEQ ID NO:363), are both derived from Kern et al. (Kern, S. E., et al., Identification of p53 as a sequence-specific DNA-binding protein. Science, 1991. 252(5013): p. 1708-11), and serve as a consensus binding sites for WT p53.
(§3) These motifs were cloned into the KPN and Eco53IK sites in pCLuc Mini-TK 2 Vector (NEB, Cat No. N0324S ). The Luciferase construct was used to assess transcriptional activation of p53 in test cells.
(§4) H1299 p53-null cells were cultured overnight and then transfected with the luciferase constructs using MaxFect Transfection Agent (Mediatech) according to the manufacturer's protocol. Prior to the transfection, cell medium was exchanged to OPTI-MEM.
(§5) The cells were treated with different peptides 24 hours after transfection. After additional 24 hours, growth medium was collected to 96 black plates: 40 μl for Cluc assay, and 20 μl for Gluc assay. Assay was performed using Turner BioSystems Modulus Microplate. Value was calculated by Cluc/gluc/NT (non-treated cells).
(§6) As additional screening strategy used to identify reactivating peptides was performed in vivo and is based on a reporter gene assay. It measures p53 transcriptional activity by quantifying the activity of a reporter gene, placed under the control of a promoter containing 17 repeats of a p53 consensus binding site (RGC). The luciferase assay is performed on living cells and therefore provides an indication on the effect of test peptides on Mut-p53 function in the context of intact cells.
(§7) For the in vivo luciferase based screening, H1299 cells were used. Transient transfection of these p53^−/− cells was performed with vectors expressing WT p53, R175H p53, R249S p53 or empty vector as control (Suad, O., et al., Structural basis of restoring sequence-specific DNA binding and transactivation to mutant p53 by suppressor mutations. J. Mol. Biol., 2009. 385(1): p. 249-65). Cells were also co-transfected with TK-RGC-luc (CAT. No. NEB, N0324S). 24 hours after transfection, cells were treated with the test peptides. […]

[3] = target: T2, R249S p53 (Homo sapiens, UniProt P04637, R249S); experiment: as above; conditions: peptides added 24 hours after transfection, read at 48 hours
T2 construct: expressed in transfected cells; host or cells: H1299 p53-/- cells, transient transfection
Procedure: as §1, §2, §3, §4, §5, §6, §7

## YRRLLIGMMWRRRRRRRRRRR [pCAP-68]
[1]
  effect on cell viability: massive cell death
[2]
  transcription from TK-RGC-luc in the presence of R175H p53: induce transcription from TK-RGC-luc
[3]
  transcription from TK-RGC-luc in the presence of R249S p53: induce transcription from TK-RGC-luc
